In article PMC12503906, “Novel Pyrazolo [1,5‐a]−1,3,5‐Triazine Derivatives as CDK7 Inhibitors: Synthesis and Biological Insights in Pancreatic Ductal Adenocarcinoma Models” (Chemmedchem, 2025):
Like-named read-outs stand apart in the source and are kept apart here.

Experiments:
Assay type in all cases: cell-based
PATU‐T GR = assay: Wound healing assay, PATU‐T GR; settings: 1× and 4 × IC50, up to 24 h
Method: (§1) The wound healing assay was used to test the migratory ability of the selected cells post‐treatment. Cells (5 × 10^4 /well) were seeded on 96‐well. After 24 h, cells reached the optimal 100% confluency, and an artificial wound was created with a 96‐well Pintool Scratcher. The cells were immediately washed with complete medium, in order to remove cell debris after the scratch, and images of the wells were captured at time 0 h, right before the addition of the treatment. Each drug (1b and 1g) was previously diluted in the respective medium at two different concentrations: 1 × IC50 and 4 × IC50 (according to the cell specific IC50 value) and were then added to the cells. Images were then taken at timepoints 4, 8, 20, and 24 h using the Leica microscope with a JAI TMC‐137 camera to assess wound closure. The images were analyzed using the Universal Grab 6.3 software (DCILabs), and the obtained data were used to determine the percentage of migration of the cells, using the following formula. (2) % Migration=Mean width of the wound atT=0−Mean width of the wound atT=X/Mean width of the wound atT=0×100

PATU‐T = assay: Wound healing assay, PATU‐T; settings: 1 × IC50 and 4 × IC50, 4 to 24 h
Method: as §1

[1] = tested on: peptide substrates specific to tyrosine kinases; assay: Kinase activity profiling, PamChip array, peptide substrates / other kinases; settings: PDAC‐3 primary cells, IC50 concentration, 2 h, Pamgene array
Method: (§2) A Kinase activity profiling was conducted using a PamChip (Pamgene, s‐Hertogenbosch, The Netherlands) array containing 144 peptide substrates specific to tyrosine kinases to assess activity changes upon treatment with compounds 1b and 1g. Experiments were carried out in PDAC3 cells, using biological triplicates comprising three untreated controls and three samples treated for 2 h with either compound at their respective 1 × IC50 concentrations, following protocols adapted from previous studies.^[ [38] ^] Protein concentrations were quantified using the Bio‐Rad protein assay, which is based on the Bradford method (Bio‐Rad, Hercules, CA). For chip loading, protein lysates were adjusted to a final concentration of 10 µg per array and combined with PamGene MasterMix. During the assay, samples were circulated through the array at 30 °C with one cycle per minute over 60 cycles. Fluorescence data acquisition was performed using a 12‐bit CCD camera, capturing real‐time fluorescence intensities. End‐point spot intensities were analyzed using the open‐source software ScanAnalyze, with background normalization applied. Statistical comparisons were performed using student's t‐test in R (version 3.6.1), followed by false discovery rate (FDR) correction.

CDK7 = CDK7 (Homo sapiens, UniProt P50613); assay: Kinase activity profiling, PamChip array, CDK7; design: endogenous in cells; host or cells: PDAC3 primary cells; settings: PDAC‐3 primary cells, IC50 concentration, 2 h, Pamgene array
Method: as §2

PDAC3 = assay: Wound healing assay, PDAC3; settings: PDAC3, up to 24 h
Method: as §1

PSC = assay: SRB chemosensitivity assay, pancreatic stellate cells (PSC); settings: Fibroblast, read-out: IC50 PSC
Method: Three lines of immortalized PDAC cells were selected as representative phenotypes: mesenchymal (PATU‐T), quasimesenchymal (PANC‐1), and an epithelial clone of SUIT 2 cells (SUIT 2.28). Cells were cultured in noncoated T‐75 and T‐25 flasks under adherent conditions, using 1× DMEM (Gibco, 41,966,029) for PATU‐T and RPMI (Gibco, 21,875,034) for SUIT 2.28 and PANC‐1, both supplemented with 10% NBCS and 1% P/S. Additional employed models were the PDAC3 cells, a primary cell culture, the PSCs, which were immortalized healthy pancreatic cells, and the PATU‐T‐GR, which was a gemcitabine resistant model of PATU‐T. PDAC3 and PSCs were cultivated using complete RPMI medium, while PATU‐T‐GR required complete DMEM medium. For seeding, cells were detached with Trypsin‐EDTA (0.05%) (GibcoTM, 25,300–096) and were consequently counted using the Automated Cell Counter (Luna‐II, Westburg). Cells were then plated on 96‐ or 6‐well plates depending on the planned experiment.
The Sulforhodamine B (SRB) chemosensitivity assay was used to measure cytotoxicity and cell proliferation post drug treatment. At day 0, 3–6 × 10^3 cells were seeded in a 96‐well plate, depending on the cell line. At day 1, cells were attached and ready to be treated. For the calculation of the IC50, drug dilutions for the compounds 1b, 1c, 1d, 1e, 1g, 1hr, 1i, 1j, and LDC4297 (MedChemExpress, HY‐12,653) were prepared in dilution trays and eight different concentrations were included. These were added in triplicates to the cells, which were then incubated for […] at 37 °C in 5% CO2. During day 1, the control plate was fixed with 50% Trichloroacetic acid (TCA), as intended to be the baseline plate used for the normalization of the data. 72 h post‐treatment, the cells were fixed with TCA, and placed at 4 °C for about 2 h. […] Lastly, the absorbance was measured at 492 nm with a spectrophotometer (Synergy HT, BioTek). The absorbance data obtained were normalized to the day 1 control, and the percentage of cell growth in relation to the control was calculated using the following formula. […]

SUIT 2.28 = assay: Wound healing assay, SUIT 2.28
Method: as §1

Sequence of CDK7 (P50613 2-346 limits assumed): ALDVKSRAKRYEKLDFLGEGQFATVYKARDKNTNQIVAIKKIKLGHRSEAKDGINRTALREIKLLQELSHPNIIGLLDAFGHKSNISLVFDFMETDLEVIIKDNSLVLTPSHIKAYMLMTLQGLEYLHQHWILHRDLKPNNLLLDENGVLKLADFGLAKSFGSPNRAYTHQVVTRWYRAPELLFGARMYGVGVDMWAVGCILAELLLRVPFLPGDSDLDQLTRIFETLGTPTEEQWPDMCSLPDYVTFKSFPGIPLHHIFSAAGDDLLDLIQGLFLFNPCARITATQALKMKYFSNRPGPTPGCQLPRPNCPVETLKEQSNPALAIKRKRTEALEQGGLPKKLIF
Sequence of CDK7 (P51946 whole entry partner): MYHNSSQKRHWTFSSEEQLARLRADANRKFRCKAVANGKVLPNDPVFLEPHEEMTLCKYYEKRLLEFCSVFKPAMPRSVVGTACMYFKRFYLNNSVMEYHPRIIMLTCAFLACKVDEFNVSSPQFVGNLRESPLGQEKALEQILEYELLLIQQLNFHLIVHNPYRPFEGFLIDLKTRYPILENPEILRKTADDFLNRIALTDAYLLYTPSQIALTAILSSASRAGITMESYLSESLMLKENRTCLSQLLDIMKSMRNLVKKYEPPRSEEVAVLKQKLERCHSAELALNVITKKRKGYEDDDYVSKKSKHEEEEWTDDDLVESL
Sequence of CDK7 (P51948 whole entry partner): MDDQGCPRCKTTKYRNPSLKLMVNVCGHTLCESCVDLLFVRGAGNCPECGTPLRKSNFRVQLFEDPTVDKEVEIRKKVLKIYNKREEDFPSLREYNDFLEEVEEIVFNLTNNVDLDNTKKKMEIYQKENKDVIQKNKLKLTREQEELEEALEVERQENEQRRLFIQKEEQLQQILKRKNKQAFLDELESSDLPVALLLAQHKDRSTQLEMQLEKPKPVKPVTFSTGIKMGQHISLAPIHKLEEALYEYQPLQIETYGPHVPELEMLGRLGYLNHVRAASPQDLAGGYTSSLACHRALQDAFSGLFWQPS

Structure (SMILES)	inhibition of cell migration (PATU‐T GR)	inhibition of cell migration (PATU‐T)	inhibition of the other kinases (other than CDK7) [1]	inhibition of phosphorylation, CDK7 (decrease vs untreated controls) (CDK7) [%]	inhibition of cell migration (PDAC3)	IC50 (PSC; SRB, nontumorous immortalized pancreatic fibroblasts, average ± SEM, triplicate) [µM]	inhibition of cell migration (SUIT 2.28; SUIT 2.28, 1 × IC50 and 4 × IC50)	IC50 (PSC) [µM]	inhibition of cell migration (SUIT 2.28; SUIT 2.28, 1 × IC50)
Nc1ncnc2cc(-c3c[nH]c4ccc(Br)cc34)nn12 [Compound 1b, 7‐(5‐Bromo‐1H‐indol‐3‐yl)pyrazolo[1,5‐a][1,3,5]triazin‐4‐amine]	significantly inhibited as early as 4 h	greatest inhibitory effect	below 50%	70	significant migration inhibition only at the 24‐hour time point	6.6 ± 0.7	strong inhibitory effects	–	–
Cn1cc(-c2cc3ncnc(N)n3n2)c2cc(Br)ccc21 [Compound 1g, 7‐(5‐Bromo‐1‐methyl‐1H‐indol‐3‐yl)pyrazolo[1,5‐a][1,3,5]triazin‐4‐amine]	significantly inhibited as early as 4 h	–	–	–	significant migration inhibition only at the 24‐hour time point	–	–	5.3 ± 1.1	greatest inhibition
